According to patent US20230147993A1, “THIOPHENE COMPOUNDS WITH CYCLIC AMIDES, AND USES THEREOF” (Capulus Therapeutics, LLC, priority 2019, published 2023):

Tests used:
[1] = system: ACACA; experiment: Gene expression in HepG2 cells (qPCR), ACACA; assay type: cell-based; settings: for 48 hours, normalized to β-Actin, relative to mock or vehicle treated cells (ΔΔCT)
Protocol: Gene Expression: The effect of selected compounds on the gene expression of HepG2 cells was evaluated. HepG2 cells (P2) were seeded in 24 well plate (80,000 cells/well) for RNA extraction and in a 96 well plate (10,000 cells/well) for Cell Titer Glow (CTG). The media used was DMEM and contained 10% FBS. Each compound was evaluated at […] for 48 hours. Two biological replicates per experimental group were evaluated for RNA. For gene analysis, RNA was harvested with RNEasy kit and 20-100 ng used to synthesize cDNA with random primers. Quantitative PCR was performed on 1 pg to 100 ng cDNA for the following genes: ACACA, ACLY, FASN, LSS, PNPLA3. Gene expression levels were normalized with housekeeping gene, β-Actin, and relative expression levels determined using ΔΔCT method comparing treated to mock or vehicle treated cells as a baseline. “Total” gene expression refers to the average of the values of the 5 genes listed above.

[2] = Stability in human liver microsomes; assay type: in vitro ADME; settings: 60 min at 37° C., NADPH
Protocol: (§1) Half-life Human Microsomes: Compounds were evaluated for stability in human liver microsomes. A 10 mM stock solution of the compound being evaluated was prepared in DMSO and diluted with water:acetonitrile (1:1) to a concentration of 1 mM. A working concentration of 100 μM was prepared by further dilution with water:acetonitrile (1:1). To make the preincubation mixture, 2.5 μL of the diluted compound was combined with 75 μL of human liver microsomes at 3.33 mg/mL, and 85 μL of 100 mM potassium phosphate buffer, and this mixture was pre-incubated for 10 min at 37° C. To make the 60 minute mixture without cofactor, 32.5 μL of the preincubation mixture was combined with 17.5 μL of 100 mM potassium phosphate buffer and incubated for 60 min at 37° C. To make the 0 min sample with cofactor (NADPH), 16.25 μL of the preincubation mixture was combined with 200 μL of acetonitrile containing internal standard and 8.75 μL of cofactor (NADPH). To make the incubation mixture, 62 μL of cofactor (2.85 mM) was combined with the remaining incubation mixture, and incubated for 60 min at 37° C. To prepare the sample mixture to be evaluated, 25 μL incubation mixture was combined with 200 μL of acetonitrile containing internal standard and vortexed for 5 min at 1200 rpm, then centrifuged for 10 min at 4000 rpm. The supernatant was diluted 2 fold with water and injected on LC-MS/MS. The sample mixture was evaluated by LC-MS/MS using 10 mM ammonium acetate with 0.1% FA as the aqueous mobile phase, and methanol as the organic mobile phase.

[3] = Stability in mouse liver microsomes; assay type: in vitro ADME
Protocol: as §1
Half-life Mouse Microsomes: Compounds were evaluated in mouse liver microsomes following a similar procedure as described above for human liver microsomes. A similar procedure could be used to evaluate compounds in rat liver microsomes.

[4] = system: SREBP; experiment: Reporter Screening Assay (SRE-luciferase reporter, HepG2); assay type: cell-based; settings: Homo sapiens, SREBPv1 Reporter cell line HepG2, 24 hours, 0.01 uM to 10 uM, read-out: I: Reporter Screening Assay (Ave EC50 (nM))
Protocol: Reporter Screening Assay: This assay was used to evaluate the effect on transcriptional activity SREBP of selected compounds using an SRE-luciferase reporter construct. On day 1, 10,000 cells were seeded in a 96 well (white) plate as per the plate map in Growth media without antibiotics. Cells were incubated at 37° C. for 8 hours. After 8 hours, cells were washed with DPBS for complete removal of FBS. DPBS was completely removed and Growth media was replaced with phenol free treatment medium (90 μl) with different FBS concentrations. The cells were then incubated at 37° C. for 24 hours with varying doses (0.01 uM to 10 uM) of compounds. Then a Luciferase assay was performed.
Reagents for performing Luciferase assay were stored at −20° C. To a tube of lyophilized assay substrate was added 1 mL Substrate Solvent and mixed well. The Substrate tube after reconstitution was covered with aluminum foil so as to keep it protected from light. The assay buffer was thawed to room temperature. To 20 mL Assay Buffer was added 200 µL of reconstituted 100× Substrate and mixed well. The reconstituted substrate as well as the assay solution (buffer + substrate) was protected from light throughout the procedure by keeping it covered with aluminum foil. Using a multi-channel pipette, 100 μL Assay Solution (buffer + substrate) was added directly to each sample well in Plate 1, which was incubated for 30 min (plate was covered with aluminum foil). After 30 min incubation, the plate was read for total luminescence. Each well was read for 2 seconds in a plate luminometer. (Microplate reader Envision Microplate reader from Perkin Elmer). Precaution was taken to incubate plate exactly for 30 min prior to reading on the plate reader.
Reporter Assay Materials: SREBPv1 Reporter cell line: HepG2-#32251. Growth Medium: MEM (Corning 10-010), 10% FBS, 1% GlutaMax (Invitrogen Catalog #35050061), […] (Invitrogen Catalog #A1113803) and 1% Penicillin-Streptomycin (Pen-Strep). Treatment Media: Phenol-free MEM (Invitrogen Catalog #51200-038) and 1% GlutaMax (Invitrogen Catalog #35050061). Luciferase Assay: LightSwitch Luciferase Assay Kit (Catalog #32032). LDH assay: Pierce LDH Cytotoxicity Assay Kit (Catalog #SD249616).

Structure (SMILES)	A: ACACA, effect of compounds on gene expression of HepG2 cells [1]	percent remaining after 60 min in human liver microsomes [2]	percent remaining after 60 min in mouse liver microsomes [3]	EC50 [4] [nM]
O=C(c1ccc(-c2cc(-c3ccnc(CC4(F)CCC4)c3)cs2)c(Cl)c1)N1CCC(O)CC1 [Compound I-1629078, (3-chloro-4-(4-(2-((1-fluorocyclobutyl)methyl)pyridin-4-yl)thiophen-2-yl)phenyl)(4-hydroxypiperidin-1-yl)methanone]	++ (0.31-0.7509 = ++)	+ (0-30 = +)	+++ (≥60.1 = +++)	< 249
O=C(c1ccc(-c2cc(-c3ccnc4c3NCCN4)cs2)c(Cl)c1)N1CCC(O)CC1 [Compound I-1629068, (3-chloro-4-(4-(l,2,3,4-tetrahydropyrido[2,3-b]pyrazin-8-yl)thiophen-2-yl)phenyl)(4-hydroxypiperidin-1-yl)methanone]	++ (0.31-0.7509 = ++)	++ (30.1-60 = ++)	+ (0-30 = +)	< 249
O=C(c1ccc(-c2cc(-c3ccnc(C4(O)COC4)c3)cs2)c(Cl)c1)N1CCC(O)CC1 [Compound I-1629083, (3-chloro-4-(4-(2-(3-hydroxyoxetan-3-yl)pyridin-4-yl)thiophen-2-yl)phenyl)(4-hydroxypiperidin-1-yl)methanone]	+ (>0.751 = +)	+++ (≥60.1 = +++)	+++ (≥60.1 = +++)	250 to 500
O=C(c1ccc(-c2cc(-c3ccnc4c3NCCO4)cs2)c(Cl)c1)N1CCC(O)CC1 [Compound I-1629084, (3-chloro-4-(4-(2,3-dihydro-1H-pyrido[2,3-b][l,4]oxazin-8-yl)thiophen-2-yl)phenyl)(4-hydroxypiperidin-1-yl)methanone]	++ (0.31-0.7509 = ++)	+ (0-30 = +)	++ (30.1-60 = ++)	< 249
O=C(c1ccc(-c2cc(-c3ccnc(C4(O)CCC4)c3)cs2)c(Cl)c1)N1CCC(O)CC1 [Compound I-1629076, (3-chloro-4-(4-(2-(1-hydroxycyclobutyl)pyridin-4-yl)thiophen-2-yl)phenyl)(4-hydroxypiperidin-1-yl)methanone]	++ (0.31-0.7509 = ++)	+++ (≥60.1 = +++)	+++ (≥60.1 = +++)	< 249
O=C(c1ccc(-c2cc(-c3ccnc(OC4CC4)c3)cs2)c(Cl)c1)N1CCC(O)CC1 [Compound I-1629059, (3-chloro-4-(4-(2-cyclopropoxypyridin-4-yl)thiophen-2-yl)phenyl)(4-hydroxypiperidin-1-yl)methanone]	++ (0.31-0.7509 = ++)	+++ (≥60.1 = +++)	+++ (≥60.1 = +++)	< 249
O=C(c1ccc(-c2cc(-c3ccnc4c3OCCN4)cs2)c(Cl)c1)N1CCC(O)CC1 [Compound I-1629067, (3-chloro-4-(4-(3,4-dihydro-2H-pyrido[3,2-b][1,4]oxazin-8-yl)thiophen-2-yl)phenyl)(4-hydroxypiperidin-1-yl)methanone]	++ (0.31-0.7509 = ++)	+ (0-30 = +)	+ (0-30 = +)	< 249
